Laboratory results as given in patent US10881110B2, “Herbicidal compositions comprising isoxazolo[5,4-b]pyridines” (BASF SE, priority 2014, dated 2021).
Where “and” joins values, the source holds several entries; their conditions need not be identical. Equal entries are not always repeated. Where two headings read alike, the source gives them in different places.

Tests used:
Experiment in all cases: greenhouse post-emergence herbicidal test
[1] = test system: POLPE; type: in vivo, Persicaria maculosa; design: key: scale 0 to 100
Outline: (§1)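 Post-emergence greenhouse test: plants in loamy sand, sprayed at 1–15 cm height with aqueous spray liquor from 10% emulsion concentrates, kept at 10-25 °C or 20-35 °C by species. Damage scored 0–100 (100 = complete destruction), usually 20 days after treatment. Expected additive effect E from Colby: E=X+Y−(X·Y/100).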

[2] = test system: SEBEX; type: in vivo, Sesbania exaltata; conditions: application rate a.i.: I.1 31.25 g/ha
Experimental: (§2) The culture containers used were plastic pots containing medium loamy sand with approximately 4.6% of humus and 69.9% sand as substrate. The seeds of the test plants were sown separately for each species.
(§3) For the post-emergence treatment, the test plants were grown to a plant height of from 1 to 15 cm, depending on the plant habit, and only then treated with the active compounds which had been suspended or emulsified in water. To this end, the test plants were either sown directly, and grown in the same containers, or they were first grown separately as seedlings and transplanted into the test containers a few days prior to treatment.
(§4) Depending on the species, the plants were kept at 10-25° C. and 20-35° C., respectively.
(§5) The test period extended over 1 to 3 weeks. During this time, the plants were tended and their response to the individual treatments was evaluated 20 days after treatment except mentioned otherwise.
(§6) Evaluation was carried out using a scale from 0 to 100. 100 means no emergence of the plants, or complete destruction of at least the above-ground parts, and 0 means no damage or normal course of growth.
(§7) The respective stated components A and B, and, if appropriate, C, were formulated as a 10% by weight strength emulsion concentrate and, with addition of the amount of solvent system, introduced into the spray liquor used for applying the active compound. In the examples, the solvent used was water.
(§8) In the examples below, using the method of S. R. Colby (1967) “Calculating synergistic and antagonistic responses of herbicide combinations”, Weeds 15, p. 22 ff., the value E, which is expected if the activity of the individual active compounds is only additive, was calculated. E=X+Y−(X·Y/100)

[3] = test system: PANMI; type: in vivo, Panicum miliaceum; conditions: application rate a.i.: I.1 125 g/ha, alone or as mixture (composition 1.113)
Experimental: as §2, §3, §4, §5, §6, §7, §8

[4] = test system: GALAP; type: in vivo, Galium aparine; design: key to herbicidal activity against GALAP found: rating on a scale from 0 to 100; conditions: post emergence; for pest or weed control at 31.25 g/ha / pest or weed control at 62.5 g/ha / pest or weed control at 125 g/ha: Galium aparine, post-emergence, 480 h, read-out: herbicidal activity against GALAP found; for pest or weed control at 125 g/ha: 125 g/ha a.i.
Outline: as §1

[5] = test system: SASKR; type: in vivo, Salsola kali; design: key: scale 0 to 100
Outline: as §1

[6] = test system: IPOHE; type: in vivo, Ipomoea hederacea; conditions: Ipomoea hederacea, post-emergence, 480 h, post emergence, read-out: herbicidal activity against IPOHE found; for pest or weed control at 31.25 g/ha: 31.25 g/ha a.i.
Outline: as §1

[7] = 6 days after treatment, g/ha a.i.: I.1 62.5, B.96 140, mixture 62.5+140
[8] = application rate a.i.: I.1 31.25 g/ha, B.84 (paraquat-dichloride) 17.5 g/ha, alone or as mixture (composition 1.84)

SMILES: O=C(O)c1cc(C2CC2)nc2onc(C3CC3)c12 [I.1]
- herbicidal activity against POLPE found ([1]; 31.25 g/ha a.i.): 45 and 70
- herbicidal activity against POLPE found ([1]; 6 days after treatment, g/ha a.i.: I.1 31.25, B.96 35, mixture 31.25+35): 10
- herbicidal activity against POLPE found ([1]; application rate a.i.: I.1 31.25 g/ha, B.139 (pyroxasulfone) 12.5 g/ha, alone or as mixture (composition 1.139)): 30
- herbicidal activity against SEBEX, found ([2]; B.139 (pyroxasulfone) 25 g/ha, alone or as mixture (composition 1.139)): 80
- herbicidal activity against SEBEX, found ([2]; B.87 (carfentrazone-ethyl) 1.75 g/ha, alone or as mixture (composition 1.87)): 75
- herbicidal activity against PANMI, found ([3]; B.113 (glyphosate) 33.75 g/ha): 60
- herbicidal activity against PANMI, found ([3]; B.113 (glyphosate) 135 g/ha): 60
- pest or weed control at 31.25 g/ha ([4]; I.1 alone 31.25 g/ha a.i.): 50%
- pest or weed control at 62.5 g/ha ([4]; I.1 alone 62.5 g/ha a.i.): 80%
- pest or weed control at 31.25 g/ha ([4]; 31.25 g/ha a.i.): 50%
- pest or weed control at 62.5 g/ha ([4]; 62.5 g/ha a.i.): 50%
- pest or weed control at 125 g/ha [4]: 80%
- pest or weed control at 31.25 g/ha ([4]; I.1 31.25 g/ha a.i.): 60%
- pest or weed control at 62.5 g/ha ([4]; I.1 62.5 g/ha a.i.): 60%
- pest or weed control at 62.5 g/ha ([4]; single active, 62.5 g/ha a.i.): 65%
- pest or weed control at 125 g/ha ([4]; single active): 65%
- herbicidal activity against GALAP found ([4]; 6 days after treatment, g/ha a.i.: I.1 62.5, B.96 70, mixture 62.5+70): 65
- herbicidal activity against GALAP found [4, 7]: 65
- herbicidal activity against GALAP found ([4]; I.1 31.25 g/ha, B.95 1 g/ha a.i.): 50
- herbicidal activity against GALAP found ([4]; I.1 31.25 g/ha, B.95 2 g/ha a.i.): 50
- herbicidal activity against GALAP found ([4]; I.1 62.5 g/ha, B.103 7.5 g/ha a.i.): 50
- herbicidal activity against GALAP found ([4]; I.1 62.5 g/ha, B.95 2 g/ha a.i.): 60
- herbicidal activity against GALAP found ([4]; a.i. g/ha: I.1 15.6, B.67 125, 20 days after treatment): 20%
- herbicidal activity against GALAP found ([4]; a.i. g/ha: I.1 20.8, B.67 62.5, 20 days after treatment): 0%
- herbicidal activity against GALAP found ([4]; a.i. g/ha: I.1 31.25, B.67 125, 20 days after treatment): 75%
- herbicidal activity against GALAP found ([4]; a.i. g/ha: I.1 31.25, B.92 0.5, 20 days after treatment): 65%
- herbicidal activity against GALAP found ([4]; a.i. g/ha: I.1 62.5, B.191 225, 20 days after treatment): 65%
- herbicidal activity against GALAP found ([4]; a.i. g/ha: I.1 62.5, B.67 62.5, 20 days after treatment): 10%
- herbicidal activity against GALAP found ([4]; a.i. g/ha: I.1 62.5, B.69 25, 20 days after treatment): 65%
- herbicidal activity against GALAP found ([4]; a.i. g/ha: I.1 62.5, B.77 75, 20 days after treatment): 10%
- herbicidal activity against GALAP found ([4]; a.i. g/ha: I.1 62.5, B.82 31.25, 20 days after treatment): 65%
- herbicidal activity against GALAP found [4, 8]: 65
- herbicidal activity against GALAP found ([4]; application rate a.i.: I.1 62.5 g/ha, B.107 (topramezone) 6 g/ha, alone or as mixture (composition 1.107)): 10
- herbicidal activity against GALAP found ([4]; application rate a.i.: I.1 125 g/ha, B.113 (glyphosate) 33.75 g/ha, alone or as mixture (composition 1.113)): 80
- herbicidal activity against GALAP found ([4]; application rate a.i.: I.1 125 g/ha, B.113 (glyphosate) 135 g/ha, alone or as mixture (composition 1.113)): 80
- herbicidal activity against GALAP found ([4]; applied alone at 31.25 g/ha a.i.): 50
- herbicidal activity against GALAP found ([4]; applied alone at 62.5 g/ha a.i.): 90
- herbicidal activity against GALAP found ([4]; applied alone at 125 g/ha a.i.): 65 and 95 and 90
- herbicidal activity against SASKAR found ([5]; 31.25 g/ha a.i.): 60
- herbicidal activity against SASKR found ([5]; 31.25 g/ha a.i.): 20
- herbicidal activity against SASKR found ([5]; 6 days after treatment, g/ha a.i.: I.1 31.25, naptalam 200, mixture 31.25+200): 65
- herbicidal activity against SASKR found [5, 7]: 65
- herbicidal activity against SASKR found ([5]; 6 days after treatment, g/ha a.i.: I.1 62.5, naptalam 50, mixture 62.5+50): 65
- herbicidal activity against SASKR found ([5]; 6 days after treatment, g/ha a.i.: I.1 62.5, naptalam 200, mixture 62.5+200): 65
- herbicidal activity against SASKR found [5, 8]: 10
- pest or weed control at 31.25 g/ha [6]: 75%
- pest or weed control at 62.5 g/ha ([6]; 62.5 g/ha a.i.): 90%
- pest or weed control at 31.25 g/ha ([6]; single active): 55%
